ChEMBL document CHEMBL5537125, “Discovery of C-3 isoxazole substituted thiochromone S,S-dioxide derivatives as potent and selective inhibitors for monoamine oxidase B (MAO-B)” (Eur J Med Chem, 2024)
One block for each molecule: values may come before it. Calls of active or inactive are those of the source. The rule behind the calls is not given here.

Assays:
[1] = target: T1, Amine oxidase [flavin-containing] B (Homo sapiens, UniProt P27338); assay: Inhibition of human recombinant MAO-B using tyramine as substrate incubated for 20 mins by fluorometric assay
T1 sequence (P27338 whole entry): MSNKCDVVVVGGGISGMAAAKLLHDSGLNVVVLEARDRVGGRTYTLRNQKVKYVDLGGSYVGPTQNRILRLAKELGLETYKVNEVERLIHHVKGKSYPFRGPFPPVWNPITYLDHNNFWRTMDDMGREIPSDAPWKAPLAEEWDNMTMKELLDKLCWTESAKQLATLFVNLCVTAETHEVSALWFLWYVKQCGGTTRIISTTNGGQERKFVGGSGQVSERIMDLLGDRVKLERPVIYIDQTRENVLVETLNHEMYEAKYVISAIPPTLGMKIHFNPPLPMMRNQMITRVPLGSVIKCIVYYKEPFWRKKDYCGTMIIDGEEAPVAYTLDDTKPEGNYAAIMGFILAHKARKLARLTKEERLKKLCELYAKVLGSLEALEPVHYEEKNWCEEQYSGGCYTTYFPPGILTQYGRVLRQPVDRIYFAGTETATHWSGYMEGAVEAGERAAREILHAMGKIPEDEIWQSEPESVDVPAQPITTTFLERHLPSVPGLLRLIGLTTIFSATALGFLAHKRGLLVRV

[2] = n-Octanol/water partition coefficient, logP of the compound at pH 7.4 by HPLC analysis; type: physicochemical
HepG2 [3] = assay: Antiproliferative activity against human HepG2 cells assessed as reduction in cell viability incubated for 24 hrs by MTT assay; type: functional, cell-based; details: HepG2, 24 h
VSMC [4] = assay: Cytotoxicity against human VSMC cells assessed as reduction in cell viability at 0.5 uM incubated for 24 hrs by MTT assay relative to control; type: toxicity, cell-based
SH-SY5Y [5] = assay: Induction of ROS production in human SH-SY5Y cells assessed as increase in oxidative damage at 2 to 4 uM incubated for 24 hrs by DCFH-DA staining based fluorescence microscopic analysis; type: functional, cell-based; details: dose 2-4 µM
VSMC [6] = assay: Cytotoxicity against differentiated human VSMC cells assessed as reduction in cell viability at 0.5 to 4 uM incubated for 24 hrs by MTT assay; type: toxicity, cell-based; details: dose 0.5-4 µM
MGC-803 [7] = assay: Antiproliferative activity against human MGC-803 cells assessed as reduction in cell viability incubated for 24 hrs by MTT assay; type: functional, cell-based; details: MGC-803, 24 h
[8] = target: T2, Amine oxidase [flavin-containing] A (Homo sapiens, UniProt P21397); assay: Inhibition of human recombinant MAO-A using tyramine as substrate at 10 uM incubated for 20 mins by fluorometric assay relative to control
T2 sequence (P21397 whole entry): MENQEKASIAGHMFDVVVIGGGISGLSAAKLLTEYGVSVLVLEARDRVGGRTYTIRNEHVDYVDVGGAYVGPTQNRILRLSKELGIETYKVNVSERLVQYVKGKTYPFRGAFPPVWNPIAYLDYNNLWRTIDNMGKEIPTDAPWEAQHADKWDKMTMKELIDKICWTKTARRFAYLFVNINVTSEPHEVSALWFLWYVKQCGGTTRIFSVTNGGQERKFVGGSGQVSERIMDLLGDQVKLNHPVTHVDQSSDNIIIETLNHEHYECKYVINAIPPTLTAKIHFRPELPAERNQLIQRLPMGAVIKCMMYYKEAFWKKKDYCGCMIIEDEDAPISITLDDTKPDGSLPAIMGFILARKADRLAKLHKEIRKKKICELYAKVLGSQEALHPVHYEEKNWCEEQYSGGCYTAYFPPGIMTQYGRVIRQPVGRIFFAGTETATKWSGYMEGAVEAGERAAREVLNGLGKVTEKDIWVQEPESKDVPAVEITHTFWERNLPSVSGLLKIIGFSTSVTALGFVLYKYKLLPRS

MCF7 = assay: Antiproliferative activity against human MCF7 cells assessed as reduction in cell viability incubated for 24 hrs by MTT assay; type: functional, cell-based; details: MCF7, 24 h
HCT-116 = assay: Antiproliferative activity against human HCT-116 cells assessed as reduction in cell viability incubated for 24 hrs by MTT assay; type: functional, cell-based; details: HCT-116, 24 h
SH-SY5Y [9] = assay: Cytotoxicity against differentiated human SH-SY5Y cells assessed as reduction in cell viability by measuring MTT reduction at 4 uM incubated for 24 hrs by MTT assay relative to control; type: toxicity, cell-based
MGC-803 [10] = assay: Antiproliferative activity against human MGC-803 cells assessed as reduction in cell viability at 0.5 to 128 uM incubated for 24 hrs by MTT assay; type: functional, cell-based; details: dose 0.5-128 µM
[11] = target: T2, Amine oxidase [flavin-containing] A; assay: Inhibition of human recombinant MAO-A using tyramine as substrate incubated for 20 mins by fluorometric assay
[12] = Cytotoxicity against differentiated human SH-SY5Y cells assessed as cell proliferation at 4 uM incubated for 24 hrs by MTT assay relative to control; type: toxicity, cell-based; details: read-out: Activity
[13] = Cytotoxicity against differentiated human SH-SY5Y cells assessed as cell proliferation at 0.5 uM incubated for 24 hrs by MTT assay relative to control; type: toxicity, cell-based; details: read-out: Activity
Homo sapiens = organism: Homo sapiens; assay: Selectivity index, ratio of IC50 for human recombinant MAO-A to IC50 for human recombinant MAO-B
[14] = Solubility of compound in DMSO; type: physicochemical
[15] = Solubility of compound in phosphate buffer; type: physicochemical
HepG2 [16] = assay: Antiproliferative activity against human HepG2 cells assessed as reduction in cell viability at 0.5 to 128 uM incubated for 24 hrs by MTT assay; type: functional, cell-based; details: dose 0.5-128 µM
[17] = Selectivity index, ratio of IC50 for MAO-A (unknown origin) to IC50 for human recombinant MAO-B
[18] = target: T1, Amine oxidase [flavin-containing] B; assay: Inhibition of human MAO-B

- IC50 [1]: 0.0268 µM
- logD [2]: 2.77
SMILES: Cc1ccc(-c2cc(C3=CS(=O)(=O)c4ccccc4C3=O)on2)cc1

- IC50 [1]: 0.0622 µM
- logD [2]: 3.2
SMILES: Cc1ccc(-c2cc(-c3csc4ccccc4c3=O)on2)cc1

- IC50 [1]: 0.0051 µM
- IC50 (HepG2 [3]): 43.3 µM
- logD [2]: 2.39
- IC50 (MGC-803 [7]): 43 µM
- inhibition at 10 µM [8]: 1%
- IC50 (MCF7): 4.21 µM
- IC50 (HCT-116): 47 µM
SMILES: COc1cccc(-c2cc(C3=CS(=O)(=O)c4ccccc4C3=O)on2)c1
- Activity (VSMC [4]): 111%
- Activity (SH-SY5Y [5]): inactive
- Activity (VSMC [6]): Non-Toxic

- IC50 [1]: 0.44 µM
- logD [2]: 2.46
SMILES: O=C1C(c2cc(-c3cccc(F)c3)no2)=CS(=O)(=O)c2ccccc21

- IC50 [1]: 0.0034 µM
- IC50 (HepG2 [3]): 55.9 µM
- logD [2]: 1.82
- IC50 [11]: 38.3 µM
- IC50 (MCF7): 3.77 µM
- IC50 (HCT-116): 53.4 µM
SMILES: O=C1C(c2cc(-c3ccc(Cl)cc3)no2)=CS(=O)(=O)c2ccccc21
- Activity (VSMC [6]): Non-Toxic
- Activity (SH-SY5Y [9]): < 90%
- Activity (MGC-803 [10]): inactive

- IC50 [1]: 0.0023 µM
- IC50 (HepG2 [3]): 99.3 µM
- logD [2]: 2.63
- IC50 (MGC-803 [7]): 37.7 µM
- inhibition at 10 µM [8]: 3.8%
- IC50 (MCF7): 16 µM
- IC50 (HCT-116): 52.1 µM
SMILES: O=C1C(c2cc(-c3ccccc3C(F)(F)F)no2)=CS(=O)(=O)c2ccccc21
- Activity (VSMC [6]): Non-Toxic
- Activity (SH-SY5Y [9]): < 90%
- viability at 24 h, 4 µM [12]: 119%
- viability at 24 h, 0.5 µM [13]: 108%

- IC50 [1]: 0.0226 µM
- logD [2]: 4.17
SMILES: O=C1C(c2cc(-c3cccc(Cl)c3)no2)=CS(=O)(=O)c2ccccc21

- Ratio IC50 (Homo sapiens): 4580
- IC50 [1]: 0.0351 µM
- logD [2]: 3.71
- IC50 [11]: 161 µM
SMILES: O=c1c(-c2cc(-c3cccc(C(F)(F)F)c3)no2)csc2ccccc12

- IC50 [1]: 0.53 µM
- logD [2]: 3.44
SMILES: Cc1cccc(-c2cc(-c3csc4ccccc4c3=O)on2)c1

- solubility [14]: Insoluble
- solubility [15]: Insoluble
SMILES: O=c1c(-c2cc(-c3cccc(Cl)c3)no2)csc2ccccc12

- Ratio IC50 (Homo sapiens): 7580
- IC50 [1]: 0.0113 µM
- logD [2]: 2.55
- IC50 [11]: 85.4 µM
SMILES: O=c1c(-c2cc(-c3ccc(C(F)(F)F)cc3)no2)csc2ccccc12

- IC50 [1]: 0.149 µM
- logD [2]: 2.43
SMILES: O=C1C(c2cc(-c3ccc(F)cc3)no2)=CS(=O)(=O)c2ccccc21

- IC50 [1]: 0.0019 µM
- IC50 (HepG2 [3]): 83.2 µM
- logD [2]: 3.39
- IC50 (MGC-803 [7]): 39.6 µM
- inhibition at 10 µM [8]: 10%
- IC50 (MCF7): 5.82 µM
- IC50 (HCT-116): 21.4 µM
SMILES: O=C1C(c2cc(-c3cccc(C(F)(F)F)c3)no2)=CS(=O)(=O)c2ccccc21
- Activity (VSMC [4]): 113%
- Activity (SH-SY5Y [5]): inactive
- Activity (VSMC [6]): Non-Toxic
- Activity (SH-SY5Y [9]): < 90%

- solubility [14]: Insoluble
- solubility [15]: Insoluble
SMILES: O=c1c(-c2cc(-c3cccc(F)c3)no2)csc2ccccc12

- IC50 [1]: 0.109 µM
- logD [2]: 3.99
SMILES: Cc1ccccc1-c1cc(-c2csc3ccccc3c2=O)on1

- solubility [14]: Insoluble
- solubility [15]: Insoluble
SMILES: COc1cccc(-c2cc(-c3csc4ccccc4c3=O)on2)c1

- solubility [14]: Insoluble
- solubility [15]: Insoluble
SMILES: O=c1c(-c2cc(-c3ccc(F)cc3)no2)csc2ccccc12

- IC50 [1]: 0.896 µM
- logD [2]: 3.26
SMILES: O=C1C(c2cc(-c3ccccc3)no2)=CS(=O)(=O)c2ccccc21

- IC50 [1]: 0.0034 µM
- IC50 (HepG2 [3]): 63.1 µM
- logD [2]: 2.62
- IC50 [11]: 64.4 µM
- IC50 (MCF7): 6.02 µM
- IC50 (HCT-116): 78.1 µM
SMILES: COc1ccc(-c2cc(C3=CS(=O)(=O)c4ccccc4C3=O)on2)cc1
- Activity (VSMC [6]): Non-Toxic
- Activity (SH-SY5Y [9]): < 90%
- viability at 24 h, 4 µM [12]: 120%
- Activity (MGC-803 [10]): inactive
- viability at 24 h, 0.5 µM [13]: 105%

- solubility [14]: Insoluble
- solubility [15]: Insoluble
SMILES: O=c1c(-c2cc(-c3ccc(Cl)cc3)no2)csc2ccccc12

- Ratio IC50 (Homo sapiens): > 8350
SMILES: Cc1ccc(C2=NOC(c3ccc(Cl)c(Cl)c3)C2)cc1 (stereo unspecified)

- IC50 [1]: 0.002 µM
- logD [2]: 4.37
- IC50 [11]: 21.2 µM
- IC50 (MCF7): 37.9 µM
SMILES: O=c1c(-c2cc(-c3ccccc3C(F)(F)F)no2)csc2ccccc12
- Activity (HepG2 [16]): inactive
- Activity (VSMC [6]): Non-Toxic
- Activity (SH-SY5Y [9]): < 90%
- viability at 24 h, 4 µM [12]: 121%
- Activity (MGC-803 [10]): inactive

- IC50 [1]: 0.0318 µM
- logD [2]: 2.37
- inhibition at 10 µM [8]: 2.6%
SMILES: O=C1C(c2cc(-c3ccc(C(F)(F)F)cc3)no2)=CS(=O)(=O)c2ccccc21

- IC50 [1]: 0.137 µM
- logD [2]: 2.69
SMILES: Cc1ccccc1-c1cc(C2=CS(=O)(=O)c3ccccc3C2=O)on1

- Ratio IC50 [17]: 1190
- IC50 [18]: 0.007 µM
SMILES: CC(=O)c1ccc(OCc2ccccc2)cc1O

- IC50 [1]: 0.0982 µM
- logD [2]: 3.23
SMILES: Cc1cccc(-c2cc(C3=CS(=O)(=O)c4ccccc4C3=O)on2)c1

- IC50 [1]: 1.23 µM
- logD [2]: 3.72
SMILES: O=c1c(-c2cc(-c3ccccc3)no2)csc2ccccc12

- IC50 [1]: 0.0185 µM
- logD [2]: 3.43
SMILES: COc1ccc(-c2cc(-c3csc4ccccc4c3=O)[nH]n2)cc1

- solubility [14]: Insoluble
- solubility [15]: Insoluble
SMILES: COc1ccc(-c2cc(-c3csc4ccccc4c3=O)on2)cc1
